We go through one compound from ChEMBL document CHEMBL6078616, “Seven-membered N-heterocycles as approved drugs and promising leads in medicinal chemistry as well as the metal-free domino access to their scaffolds” (Eur J Med Chem, 2024).

Some results are limits rather than exact numbers.

One test addresses Histone deacetylase 2 (Homo sapiens, UniProt Q92769). As to the kind of experiment: Inhibition of HDAC2 (unknown origin).
A further test concerns the target Histone deacetylase 5 (Homo sapiens, UniProt Q9UQL6). As to the kind of experiment: Inhibition of HDAC5 (unknown origin).
For a further test, the target named is T1, Histone deacetylase 7 (Homo sapiens, UniProt Q8WUI4).
T1 sequence (Q8WUI4 whole entry): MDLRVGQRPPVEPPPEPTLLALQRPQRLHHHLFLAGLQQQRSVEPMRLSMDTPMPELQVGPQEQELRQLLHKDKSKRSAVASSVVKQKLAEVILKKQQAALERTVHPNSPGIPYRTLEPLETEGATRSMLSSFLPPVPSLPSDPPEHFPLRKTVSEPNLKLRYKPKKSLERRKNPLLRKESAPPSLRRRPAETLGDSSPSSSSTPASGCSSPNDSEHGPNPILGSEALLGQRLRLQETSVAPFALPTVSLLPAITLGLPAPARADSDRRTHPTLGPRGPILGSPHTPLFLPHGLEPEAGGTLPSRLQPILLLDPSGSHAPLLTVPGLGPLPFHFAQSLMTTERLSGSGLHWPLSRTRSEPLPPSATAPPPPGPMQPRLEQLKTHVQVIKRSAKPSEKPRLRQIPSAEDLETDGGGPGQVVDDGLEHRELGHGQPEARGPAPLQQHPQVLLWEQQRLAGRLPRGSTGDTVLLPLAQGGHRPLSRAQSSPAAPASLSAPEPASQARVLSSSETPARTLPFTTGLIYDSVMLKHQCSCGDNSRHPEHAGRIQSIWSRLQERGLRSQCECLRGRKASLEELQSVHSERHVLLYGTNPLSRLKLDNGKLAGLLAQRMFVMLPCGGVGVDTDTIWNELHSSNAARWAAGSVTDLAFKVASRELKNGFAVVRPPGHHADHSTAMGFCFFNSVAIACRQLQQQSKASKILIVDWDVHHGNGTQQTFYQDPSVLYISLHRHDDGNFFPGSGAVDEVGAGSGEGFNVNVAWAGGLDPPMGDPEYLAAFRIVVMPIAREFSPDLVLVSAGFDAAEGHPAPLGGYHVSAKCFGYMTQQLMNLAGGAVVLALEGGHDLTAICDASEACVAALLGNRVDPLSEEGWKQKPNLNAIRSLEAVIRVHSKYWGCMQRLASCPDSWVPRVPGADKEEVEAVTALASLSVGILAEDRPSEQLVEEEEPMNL
As to the kind of experiment: Inhibition of HDAC7 (unknown origin).

Sequence of Histone deacetylase 5 (Q9UQL6 whole entry): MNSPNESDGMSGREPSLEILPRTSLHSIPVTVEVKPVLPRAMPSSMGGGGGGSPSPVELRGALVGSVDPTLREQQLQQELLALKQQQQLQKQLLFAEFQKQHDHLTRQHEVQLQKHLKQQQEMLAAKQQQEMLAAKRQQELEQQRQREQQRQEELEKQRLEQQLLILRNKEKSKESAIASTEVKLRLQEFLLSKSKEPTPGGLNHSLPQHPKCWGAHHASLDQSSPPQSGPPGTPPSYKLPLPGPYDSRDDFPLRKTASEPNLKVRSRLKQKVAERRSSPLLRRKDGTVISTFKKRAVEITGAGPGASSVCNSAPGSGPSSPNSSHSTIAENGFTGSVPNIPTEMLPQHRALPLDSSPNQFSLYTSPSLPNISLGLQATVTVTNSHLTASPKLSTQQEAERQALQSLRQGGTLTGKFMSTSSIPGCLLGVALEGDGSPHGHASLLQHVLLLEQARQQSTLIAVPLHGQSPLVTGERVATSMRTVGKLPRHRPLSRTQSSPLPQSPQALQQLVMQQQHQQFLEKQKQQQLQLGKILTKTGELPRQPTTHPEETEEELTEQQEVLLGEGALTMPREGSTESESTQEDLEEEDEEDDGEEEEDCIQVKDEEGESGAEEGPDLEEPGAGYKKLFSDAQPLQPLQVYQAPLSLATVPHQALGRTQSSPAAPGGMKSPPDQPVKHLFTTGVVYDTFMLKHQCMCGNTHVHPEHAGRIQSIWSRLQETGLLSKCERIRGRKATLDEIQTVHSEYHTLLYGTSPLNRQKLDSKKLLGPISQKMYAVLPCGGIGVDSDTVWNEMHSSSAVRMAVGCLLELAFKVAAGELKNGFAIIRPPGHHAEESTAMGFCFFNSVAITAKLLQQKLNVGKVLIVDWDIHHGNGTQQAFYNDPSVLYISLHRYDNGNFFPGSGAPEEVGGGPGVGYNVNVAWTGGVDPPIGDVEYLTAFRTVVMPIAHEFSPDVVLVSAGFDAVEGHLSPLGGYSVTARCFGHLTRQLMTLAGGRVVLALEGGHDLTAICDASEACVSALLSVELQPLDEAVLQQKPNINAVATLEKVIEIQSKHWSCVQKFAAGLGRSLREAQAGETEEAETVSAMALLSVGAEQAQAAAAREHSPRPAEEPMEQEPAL
Sequence of Histone deacetylase 2 (Q92769 whole entry): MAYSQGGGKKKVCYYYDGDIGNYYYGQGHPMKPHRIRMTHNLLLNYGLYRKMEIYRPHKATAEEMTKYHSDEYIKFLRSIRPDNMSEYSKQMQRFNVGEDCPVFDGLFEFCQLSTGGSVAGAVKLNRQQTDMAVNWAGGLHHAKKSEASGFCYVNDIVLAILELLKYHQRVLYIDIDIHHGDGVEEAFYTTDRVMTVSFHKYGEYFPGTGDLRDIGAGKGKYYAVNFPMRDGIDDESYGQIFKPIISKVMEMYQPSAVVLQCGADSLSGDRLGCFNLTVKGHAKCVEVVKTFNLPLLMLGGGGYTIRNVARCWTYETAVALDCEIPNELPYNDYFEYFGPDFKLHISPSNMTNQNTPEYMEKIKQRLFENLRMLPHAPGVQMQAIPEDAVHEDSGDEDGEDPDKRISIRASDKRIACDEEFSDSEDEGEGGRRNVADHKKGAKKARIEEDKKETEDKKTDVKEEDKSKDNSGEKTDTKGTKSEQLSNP

Consider `O=C(NO)c1ccc(CN2c3ccccc3[S+]([O-])C[C@H]3CCCC[C@H]32)cc1` (stereo partly drawn), for which the IC50 on Histone deacetylase 2 is 26 µM; at Histone deacetylase 5, 12 µM; at Histone deacetylase 7, over 30 µM.

A word on the IC50: it is the midpoint of a concentration-inhibition curve. A higher IC50 goes with weaker potency.
